In patent US10981894B2, “Melanocortin subtype-2 receptor (MC2R) antagonists and uses thereof” (Crinetics Pharmaceuticals, Inc., priority 2018, dated 2021):

Target: hMC2 receptor (Homo sapiens, UniProt Q01718)
Assay: hMC2 membrane binding assay ([125I]ACTH (1-39) Tyr23, SPA)
Set-up: scale not given here
Details: crude hMC2R membranes from CRE-bla-CHO-K1 cells expressing hMC2 receptor and hMRAP; [125I]ACTH (1-39) Tyr23 0.2 nM; 1.5 hours at room temperature; read-out: MC2R binding potency
Summary of the method: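 Ki comes from non-linear regression of SPA scintillation counts. Displacement of 0.2 nM [125I]ACTH(1-39) Tyr23 by compound dose series (usually 0–10,000 nM final) ran 1.5 h at room temperature. Membranes came from CHO-K1 CRE-bla cells stably expressing hMC2R plus hMRAP, bead-coupled in pH 7.4 buffer with 0.2% BSA.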

Chain of hMC2 receptor (Q01718 whole entry): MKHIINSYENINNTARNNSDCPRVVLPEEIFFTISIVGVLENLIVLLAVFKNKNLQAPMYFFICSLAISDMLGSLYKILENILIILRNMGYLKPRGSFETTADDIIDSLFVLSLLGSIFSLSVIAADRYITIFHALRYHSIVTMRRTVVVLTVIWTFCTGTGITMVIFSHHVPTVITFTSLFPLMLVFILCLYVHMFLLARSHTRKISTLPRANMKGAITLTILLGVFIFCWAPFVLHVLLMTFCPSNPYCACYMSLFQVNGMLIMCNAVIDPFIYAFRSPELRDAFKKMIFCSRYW
Chain of hMC2 receptor (Q8TCY5 whole entry partner): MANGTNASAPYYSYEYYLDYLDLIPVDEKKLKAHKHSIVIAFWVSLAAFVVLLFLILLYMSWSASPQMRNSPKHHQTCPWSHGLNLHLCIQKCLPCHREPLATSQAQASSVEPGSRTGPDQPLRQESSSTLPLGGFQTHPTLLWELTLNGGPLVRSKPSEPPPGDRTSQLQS

SMILES | Ki [nM]
CCOc1ncccc1-c1ccc(N2CCN(C(=O)N3CCc4cccc(C#N)c43)C[C@H]2CC)c(C(=O)NC2CN(C)C2)n1 [Compound 1-409, 5-[(2R)-4-(7-cyano-2,3-dihydro-1H-indole-1-carbonyl)-2-ethylpiperazin-1-yl]-2′-ethoxy-N-(1-methylazetidin-3-yl)-[2,3′-bipyridine]-6-carboxamide] | < 10
CCOc1ccccc1-c1ccc(N2CCN(C(=O)C3(C(F)(F)F)CCC3)C[C@H]2CC)c(C(=O)N[C@@H]2CN3CCC2CC3)n1 [Compound 1-410, N-[(3S)-1-azabicyclo[2.2.2]octan-3-yl]-6-(2-ethoxyphenyl)-3-[(2R)-2-ethyl-4-[1-(trifluoromethyl)cyclobutanecarbonyl]piperazin-1-yl]pyridine-2-carboxamide] | < 10
CCOc1ncccc1-c1ccc(N2CCN(C(=O)C3(C(F)(F)F)CCC3)C[C@H]2CC)c(C(=O)N[C@@H]2CN3CCC2CC3)n1 [Compound 1-411, N-[(3S)-1-azabicyclo[2.2.2]octan-3-yl]-2′-ethoxy-5-[(2R)-2-ethyl-4-[1-(trifluoromethyl)cyclobutanecarbonyl]piperazin-1-yl]-[2,3′-bipyridine]-6-carboxamide] | < 10
CCOc1ccccc1-c1ccc(N2CCN(C(=O)N3CCC[C@H]3C(C)(C)F)C[C@H]2CC)c(C(=O)N[C@@H]2CCN(C)C2)n1 [Compound 1-412, 6-(2-ethoxyphenyl)-3-[(2R)-2-ethyl-4-[(2S)-2-(2-fluoropropan-2-yl)pyrrolidine-1-carbonyl]piperazin-1-yl]-N-[(3R)-1-methylpyrrolidin-3-yl]pyridine-2-carboxamide] | < 10
CCOc1ncccc1-c1ccc(N2CCN(C(=O)N3CCC[C@H]3C(C)(C)F)C[C@H]2CC)c(C(=O)N[C@@H]2CCN(C)C2)n1 [Compound 1-413, 2′-ethoxy-5-[(2R)-2-ethyl-4-[(2S)-2-(2-fluoropropan-2-yl)pyrrolidine-1-carbonyl]piperazin-1-yl]-N-[(3R)-1-methylpyrrolidin-3-yl]-[2,3′-bipyridine]-6-carboxamide] | < 10
CCOc1ccccc1-c1ccc(N2CCN(C(=O)N3CCc4cccc(C#N)c43)C[C@H]2CC)c(C(=O)NC2CN(C)C2)n1 [Compound 1-414, 3-[(2R)-4-(7-cyano-2,3-dihydro-1H-indole-1-carbonyl)-2-ethylpiperazin-1-yl]-6-(2-ethoxyphenyl)-N-(1-methylazetidin-3-yl)pyridine-2-carboxamide] | < 10
CCOc1ncccc1-c1ccc(N2CCN(C(=O)C3(C(F)(F)F)CCCC3)C[C@H]2CC)c(C(=O)NCC2=NCCN2C)n1 [Compound 1-415, 2′-ethoxy-5-[(2R)-2-ethyl-4-[1-(trifluoromethyl)cyclopentanecarbonyl]piperazin-1-yl]-N-[(1-methyl-4,5-dihydro-1H-imidazol-2-yl)methyl]-[2,3′-bipyridine]-6-carboxamide] | < 10
CCOc1ncccc1-c1ccc(N2CCN(C(=O)C3(C(F)F)CCCC3)C[C@H]2CC)c(C(=O)N[C@@H]2CCN(C)C2)n1 [Compound 1-416, 5-[(2R)-4-[1-(difluoromethyl)cyclopentanecarbonyl]-2-ethylpiperazin-1-yl]-2′-ethoxy-N-[(3R)-1-methylpyrrolidin-3-yl]-[2,3′-bipyridine]-6-carboxamide] | < 10
CCOc1ccccc1-c1ccc(N2CCN(C(=O)C3(C(F)F)CCCC3)C[C@H]2CC)c(C(=O)N[C@@H]2CCN(C)C2)n1 [Compound 1-417, 3-[(2R)-4-[1-(difluoromethyl)cyclopentanecarbonyl]-2-ethylpiperazin-1-yl]-6-(2-ethoxyphenyl)-N-[(3R)-1-methylpyrrolidin-3-yl]pyridine-2-carboxamide] | < 10
CCOc1ncccc1-c1ccc(N2CCN(C(=O)N3CCc4cccc(C(F)(F)F)c43)C[C@H]2CC)c(C(=O)NC2CN(C)C2)n1 [Compound 1-418, 2′-ethoxy-5-[(2R)-2-ethyl-4-[7-(trifluoromethyl)-2,3-dihydro-1H-indole-1-carbonyl]piperazin-1-yl]-N-(1-methylazetidin-3-yl)-[2,3′-bipyridine]-6-carboxamide] | < 10
CCOc1ncccc1-c1ccc(N2CCN(C(=O)N3CCc4cc(F)cc(Cl)c43)C[C@H]2CC)c(C(=O)N[C@H]2CCN(C)C2)n1 [Compound 1-419, 5-[(2R)-4-(7-chloro-5-fluoro-2,3-dihydro-1H-indole-1-carbonyl)-2-ethylpiperazin-1-yl]-2′-ethoxy-N-[(3S)-1-methylpyrrolidin-3-yl]-[2,3′-bipyridine]-6-carboxamide] | < 10
CCOc1ncccc1-c1ccc(N2CCN(C(=O)N3CCc4cc(F)cc(Cl)c43)C[C@H]2CC)c(C(=O)NC2CN(C)C2)n1 [Compound 1-420, 5-[(2R)-4-(7-chloro-5-fluoro-2,3-dihydro-1H-indole-1-carbonyl)-2-ethylpiperazin-1-yl]-2′-ethoxy-N-(1-methylazetidin-3-yl)-[2,3′-bipyridine]-6-carboxamide] | < 10
CCOc1ccccc1-c1ccc(N2CCN(C(=O)N3CCc4cc(F)cc(Cl)c43)C[C@H]2CC)c(C(=O)N[C@H]2CCN(C)C2)n1 [Compound 1-421, 3-[(2R)-4-(7-chloro-5-fluoro-2,3-dihydro-1H-indole-1-carbonyl)-2-ethylpiperazin-1-yl]-6-(2-ethoxyphenyl)-N-[(3S)-1-methylpyrrolidin-3-yl]pyridine-2-carboxamide] | < 10
CCOc1ncccc1-c1ccc(N2CCN(C(=O)N3CCc4cc(F)cc(C#N)c43)C[C@H]2CC)c(C(=O)NC2CN(C)C2)n1 [Compound 1-422, 5-[(2R)-4-(7-cyano-5-fluoro-2,3-dihydro-1H-indole-1-carbonyl)-2-ethylpiperazin-1-yl]-2′-ethoxy-N-(1-methylazetidin-3-yl)-[2,3′-bipyridine]-6-carboxamide] | < 10
CCOc1ncccc1-c1ccc(N2CCN(C(=O)N3CCc4cc(F)cc(C#N)c43)C[C@H]2CC)c(C(=O)N[C@H]2CCN(C)C2)n1 [Compound 1-423, 5-[(2R)-4-(7-cyano-5-fluoro-2,3-dihydro-1H-indole-1-carbonyl)-2-ethylpiperazin-1-yl]-2′-ethoxy-N-[(3S)-1-methylpyrrolidin-3-yl]-[2,3′-bipyridine]-6-carboxamide] | < 10
CCOc1ccccc1-c1ccc(N2CCN(C(=O)N3CCc4cc(F)cc(C#N)c43)C[C@H]2CC)c(C(=O)NC2CN(C)C2)n1 [Compound 1-424, 3-[(2R)-4-(7-cyano-5-fluoro-2,3-dihydro-1H-indole-1-carbonyl)-2-ethylpiperazin-1-yl]-6-(2-ethoxyphenyl)-N-(1-methylazetidin-3-yl)pyridine-2-carboxamide] | < 10
CCOc1ncccc1-c1ccc(N2CCN(C(=O)n3ccc4cc(F)cc(Cl)c43)C[C@H]2CC)c(C(=O)N[C@@H]2CCN(C)C2)n1 [Compound 1-425, 5-[(2R)-4-(7-chloro-5-fluoro-1H-indole-1-carbonyl)-2-ethylpiperazin-1-yl]-2′-ethoxy-N-[(3R)-1-methylpyrrolidin-3-yl]-[2,3′-bipyridine]-6-carboxamide] | < 10
CCOc1ccccc1-c1ccc(N2CCN(C(=O)N3CCc4cc(F)cc(C#N)c43)C[C@H]2CC)c(C(=O)N[C@H]2CCN(C)C2)n1 [Compound 1-426, 3-[(2R)-4-(7-cyano-5-fluoro-2,3-dihydro-1H-indole-1-carbonyl)-2-ethylpiperazin-1-yl]-6-(2-ethoxyphenyl)-N-[(3S)-1-methylpyrrolidin-3-yl]pyridine-2-carboxamide] | < 10
CCOc1ncccc1-c1ccc(N2CCN(C(=O)N3CCCC[C@H]3C(F)(F)F)C[C@H]2CC)c(C(=O)N[C@@H]2CCN(C)C2)n1 [Compound 1-427, 2′-ethoxy-5-[(2R)-2-ethyl-4-[(2S)-2-(trifluoromethyl)piperidine-1-carbonyl]piperazin-1-yl]-N-[(3R)-1-methylpyrrolidin-3-yl]-[2,3′-bipyridine]-6-carboxamide] | < 10
CCOc1ncccc1-c1ccc(N2CCN(C(=O)n3ccc4cccc(Cl)c43)C[C@H]2CC)c(C(=O)N[C@@H]2CCN(C)C2)n1 [Compound 1-428, 5-[(2R)-4-(7-chloro-1H-indole-1-carbonyl)-2-ethylpiperazin-1-yl]-2′-ethoxy-N-[(3R)-1-methylpyrrolidin-3-yl]-[2,3′-bipyridine]-6-carboxamide] | < 10
CCOc1ncccc1-c1ccc(N2CCN(C(=O)n3ccc4cccc(C#N)c43)C[C@H]2CC)c(C(=O)N[C@@H]2CCN(C)C2)n1 [Compound 1-429, 5-[(2R)-4-(7-cyano-1H-indole-1-carbonyl)-2-ethylpiperazin-1-yl]-2′-ethoxy-N-[(3R)-1-methylpyrrolidin-3-yl]-[2,3′-bipyridine]-6-carboxamide] | < 10
CCOc1ccccc1-c1ccc(N2CCN(C(=O)n3ccc4cc(F)cc(Cl)c43)C[C@H]2CC)c(C(=O)N[C@@H]2CCN(C)C2)n1 [Compound 1-430, 3-[(2R)-4-(7-chloro-5-fluoro-1H-indole-1-carbonyl)-2-ethylpiperazin-1-yl]-6-(2-ethoxyphenyl)-N-[(3R)-1-methylpyrrolidin-3-yl]pyridine-2-carboxamide] | < 10
CCOc1ccccc1-c1ccc(N2CCN(C(=O)n3ccc4cccc(Cl)c43)C[C@H]2CC)c(C(=O)N[C@@H]2CCN(C)C2)n1 [Compound 1-431, 3-[(2R)-4-(7-chloro-1H-indole-1-carbonyl)-2-ethylpiperazin-1-yl]-6-(2-ethoxyphenyl)-N-[(3R)-1-methylpyrrolidin-3-yl]pyridine-2-carboxamide] | < 10
CCOc1ccccc1-c1ccc(N2CCN(C(=O)n3ccc4cccc(C#N)c43)C[C@H]2CC)c(C(=O)N[C@@H]2CCN(C)C2)n1 [Compound 1-432, 3-[(2R)-4-(7-cyano-1H-indole-1-carbonyl)-2-ethylpiperazin-1-yl]-6-(2-ethoxyphenyl)-N-[(3R)-1-methylpyrrolidin-3-yl]pyridine-2-carboxamide] | < 10
